Experimental data: PMC3721678 (Biochemistry, 2010)

Experiments:
[1] = molecular target: T1, Helix pomatia agglutinin (HPA) (Helix pomatia, UniProt Q2F1K8); experiment: SPR competition assay; type: binding; conditions: 8 µM mIgA1κ as competed analyte, 25 °C; competitive
T1 sequence (Q2F1K8 20-121): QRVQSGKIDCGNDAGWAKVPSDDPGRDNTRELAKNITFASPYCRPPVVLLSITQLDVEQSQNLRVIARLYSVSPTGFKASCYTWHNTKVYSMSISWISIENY

[2] = tested on: Helix aspersa agglutinin (HAA); experiment: SPR competition assay; type: binding, Cornu aspersum; conditions: 8 µM mIgA1κ as competed analyte, 25 °C; competitive

- IC50 [1]: 220 ± 20 µM
- IC50 [2]: 81 ± 8 µM
SMILES: CC(=O)N[C@H]1C(O)O[C@H](CO)[C@H](O)[C@@H]1O (some centres unmarked) [GalNAc]
